Assay results from US11691981B2, “Heterocyclic compounds, preparation methods therefor, and methods of uses thereof” (INVENTISBIO CO., LTD., priority 2019, dated 2023).

Key:
TGFβR1 = TGFβR1 (Homo sapiens (Human), UniProt P36897); assay: TGFβR1 kinase inhibition assay (ADP-Glo Kinase Assay); format: biochemical; details: 40 nM TGFβR1 in 2x enzyme mix, 5.4 μM ATP in 2x substrate mix, 120 min RT
Experimental: TGFβR1 kinase assay was performed according to the instruction manual of the ADP-Glo™ Kinase Assay kit provided by Promega. Prepare 1× Kinase buffer (50 mM Tris pH7.5, 0.1% BSA, 10 mM MgCl2, 1 mM DTT). Before activation reaction was started, Compounds were dissolved in DMSO and make 100× solution with 3-fold serial dilution for a total of 10 concentrations. Transfer 50 nL compounds to 384-well plate according to plate map using the automated liquid handler. […] Add 5 μL ADP-Glo Reagent to terminate the kinase reaction and deplete the remaining ATP, incubate at RT for 60 minutes. Add 10 μL Kinase Detection Reagent to convert ADP to ATP and allow the newly synthesized ATP to be measured using a luciferin reaction, incubate at RT for 30 minutes. Collect luminescence data with Envision.

TGFβR2 = TGFβR2 (Homo sapiens (Human), UniProt P37173); assay: TGFβR2 kinase inhibition assay (ADP-Glo); format: biochemical; details: 10 uM ATP, 120 min room temperature
Sequence of TGFβR2 (P37173 23-567): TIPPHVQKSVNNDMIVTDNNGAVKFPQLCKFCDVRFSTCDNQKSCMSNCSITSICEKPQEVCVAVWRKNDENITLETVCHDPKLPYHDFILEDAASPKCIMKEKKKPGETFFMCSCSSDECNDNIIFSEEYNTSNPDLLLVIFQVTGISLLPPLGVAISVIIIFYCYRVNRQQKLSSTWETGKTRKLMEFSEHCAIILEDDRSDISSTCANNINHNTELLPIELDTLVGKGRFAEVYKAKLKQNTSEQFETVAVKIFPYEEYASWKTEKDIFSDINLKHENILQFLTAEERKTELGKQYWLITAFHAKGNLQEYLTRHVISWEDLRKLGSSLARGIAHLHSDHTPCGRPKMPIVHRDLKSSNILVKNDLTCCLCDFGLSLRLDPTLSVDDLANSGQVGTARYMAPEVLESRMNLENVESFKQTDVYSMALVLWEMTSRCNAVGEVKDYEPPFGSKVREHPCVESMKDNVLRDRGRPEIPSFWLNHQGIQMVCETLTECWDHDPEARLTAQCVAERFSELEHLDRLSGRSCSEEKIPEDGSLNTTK
Experimental: The TGFβR2 enzyme reaction was carried out as follows: 50 nL of compound in DMSO (or DMSO controls) were stamped into 384 white, low-volume plates. 2.5 μL of 2× enzyme solution (final enzyme concentration was 3 ng/uL in 40 mMTris, 7.5; 20 mM MgCl2; 0.1 mg/mL BSA; 1 mM DTT) was dispensed into assay plate. The plate was then sealed and spun at 1000 rpm for 30 s and incubated at room temperature for 10 min. Followed by addition of 2.5 μL of 2× substrate solution that contains both ATP (to make a final concentration of 10 uM) and TGFβR2 substrate (final concentration of 0.2 ug/uL). The plate was then sealed and spun at 1000 rpm for 30 s and the reaction was then incubated at room temperature for 120 min. After that 5 μL ADP-Glo™ Reagent was added into the assay wells to stop the reaction and deplete unconsumed ATP for 40 min at room temperature; then, 10 μL of Detection Reagent was added into the assay wells, followed by 40 min incubation to develop luminescence. The luminescence signal was then collected on Envision 2104 plate reader.

Sequence of TGFβR1 (P36897 34-503): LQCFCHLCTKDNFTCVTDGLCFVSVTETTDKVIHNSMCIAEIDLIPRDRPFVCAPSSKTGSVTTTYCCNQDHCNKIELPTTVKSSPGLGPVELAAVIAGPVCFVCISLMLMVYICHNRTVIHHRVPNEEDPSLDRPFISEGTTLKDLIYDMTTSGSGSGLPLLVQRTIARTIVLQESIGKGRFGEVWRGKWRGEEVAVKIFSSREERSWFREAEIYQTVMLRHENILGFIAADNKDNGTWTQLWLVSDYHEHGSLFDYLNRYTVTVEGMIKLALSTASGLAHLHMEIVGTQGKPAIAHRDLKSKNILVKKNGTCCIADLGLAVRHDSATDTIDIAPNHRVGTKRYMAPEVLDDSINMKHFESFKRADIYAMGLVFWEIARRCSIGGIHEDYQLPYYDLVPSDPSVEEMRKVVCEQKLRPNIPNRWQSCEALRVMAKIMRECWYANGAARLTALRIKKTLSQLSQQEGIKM

Row | IC50 (TGFβR1) | IC50 (TGFβR2) | Structure (SMILES)
1 | 61 nM |  | CC(C)(O)c1cc(Nc2cc(Oc3cc(C4CC4)nn3C3CCOCC3)ccn2)ccn1 [Compound 1]
2 | 825 nM | > 100 µM | CC(C)(O)c1cc(Nc2cc(Oc3cc(C4CC4)nn3C3CCOCC3)ncn2)ccn1 [Compound 3]
3 | 60 nM |  | Cc1cc(Oc2ccnc(Nc3ccnc(C(C)(C)O)c3)c2)n(C2CCOCC2)n1 [Compound 4]
4 | 43 nM | > 100 µM | CC(C)(O)c1cc(Nc2cc(Oc3cc(C4CC4)nn3C3CC3)ccn2)ccn1 [Compound 5]
5 | 46 nM |  | CC(C)(O)c1cc(Nc2cc(Oc3cc(C4CC4)nn3C(C)(C)C)ccn2)ccn1 [Compound 6]
6 | 557 nM | > 100 µM | CC(C)(O)c1cc(Nc2cc(Oc3cc(C(F)(F)F)nn3C3CC3)ccn2)ccn1 [Compound 7]
7 | 173 nM | > 100 µM | CC(C)(O)c1cc(Nc2cc(Oc3cc(C(F)F)nn3C3CCOCC3)ccn2)ccn1 [Compound 8]
8 | 163 nM | > 100 µM | N#Cc1cccc(Nc2cc(Oc3cc(C(F)(F)F)nn3C3CCOCC3)ccn2)c1 [Compound 9]
9 | 131 nM | > 100 µM | N#Cc1ccc(Nc2cc(Oc3cc(C(F)(F)F)nn3C3CCOCC3)ccn2)cc1 [Compound 10]
10 | 37 nM | > 100 µM | NS(=O)(=O)c1ccc(Nc2cc(Oc3cc(C4CC4)nn3C3CCOCC3)ccn2)cc1 [Compound 14]
11 | 94 nM | > 100 µM | CC(C)(C)n1nc(C2CC2)cc1Oc1ccnc(Nc2ccc(S(N)(=O)=O)cc2)c1 [Compound 15]
12 | 34 nM | 34 µM | CC(C)(O)c1cc(Nc2cc(Oc3cc(C(F)(F)F)nn3C(C)(C)C)ccn2)ccn1 [Compound 16]
13 | 12 nM | 1 µM | CC(C)(O)c1cc(Nc2cc(Oc3cc(C(F)(F)F)nn3-c3ccccc3)ccn2)ccn1 [Compound 17]
14 | > 10000 nM |  | C[C@@H]1C[C@@H](n2nc(C3CC3)cc2Oc2ccnc(Nc3ccnc(C(C)(C)O)c3)c2)C[C@H](C)O1 [Compound 18]
15 | 7710 nM |  | C[C@@H]1C[C@H](n2nc(C3CC3)cc2Oc2ccnc(Nc3ccnc(C(C)(C)O)c3)c2)C[C@H](C)O1 [Compound 19]
16 | 48 nM |  | CC(C)(O)c1cc(Nc2cc(Oc3cc(C(F)(F)F)nn3CC3CC3)ccn2)ccn1 [Compound 20]
17 | 37 nM | > 100 µM | CC(C)(O)c1cc(Nc2cc(Oc3cc(C4CC4)nn3CC(F)(F)F)ccn2)ccn1 [Compound 21]
18 | 54 nM |  | CCn1nc(C(F)(F)F)cc1Oc1ccnc(Nc2ccnc(C(C)(C)O)c2)c1 [Compound 22]
19 | 223 nM |  | CC(C)(O)c1cc(Nc2cc(Oc3cc(C(F)(F)F)nn3C3CNC3)ccn2)ccn1 [Compound 24]
20 | 66 nM |  | CC(C)n1nc(C(F)(F)F)cc1Oc1ccnc(Nc2ccnc(C(C)(C)O)c2)c1 [Compound 25]
21 | 88 nM |  | CC(C)(O)c1cc(Nc2cc(Oc3cc(C(F)(F)F)nn3C3CCNCC3)ccn2)ccn1 [Compound 26]
22 | 58 nM |  | CC(C)(O)c1cc(Nc2cc(Oc3cc(C(F)(F)F)nn3C3CC3)ccn2)ccn1 [Compound 27]

Row | IC50 (TGFβR1) | IC50 (TGFβR2) | Structure (SMILES)
23 | 35 nM | 36 µM | CC(C)(O)c1cc(Nc2cc(Oc3cc(C4CC4)nn3[C@H]3C[C@H]4CC[C@@H](C3)O4)ccn2)ccn1 [Compound 28]
24 | 19 nM | 89 µM | CC(C)(O)c1cc(Nc2cc(Oc3cc(C4CC4)nn3[C@@H]3C[C@H]4CC[C@@H](C3)O4)ccn2)ccn1 [Compound 29]
25 | 89 nM |  | C[C@@H]1C[C@@H](n2nc(C(F)(F)F)cc2Oc2ccnc(Nc3ccnc(C(C)(C)O)c3)c2)C[C@H](C)O1 [Compound 30]
26 | 1040 nM |  | C[C@@H]1C[C@H](n2nc(C(F)(F)F)cc2Oc2ccnc(Nc3ccnc(C(C)(C)O)c3)c2)C[C@H](C)O1 [Compound 31]
27 | 868 nM |  | CC(C)(O)c1cc(Nc2cc(Oc3cc(C(F)(F)F)nn3C3CCNC3)ccn2)ccn1 (centres unmarked) [Compound 32]
28 | 49 nM | > 100 µM | CC(C)(O)c1cc(Nc2cc(Oc3cc(C(F)(F)F)nn3C3CCCNC3)ccn2)ccn1 (centres unmarked) [Compound 33]
29 | 42 nM | 17 µM | Cc1ccc(-n2nc(C(F)(F)F)cc2Oc2ccnc(Nc3ccnc(C(C)(C)O)c3)c2)cc1 [Compound 34]
30 | 86 nM |  | CC(C)(O)c1cc(Nc2cc(Oc3cc(C(F)(F)F)nn3-c3ccc(F)cc3)ccn2)ccn1 [Compound 35]
31 | 56 nM |  | CC(C)(O)c1cc(Nc2cc(Oc3cc(C(F)(F)F)nn3-c3cccc(Cl)c3)ccn2)ccn1 [Compound 36]
32 | 283 nM |  | CC(C)(O)c1cc(Nc2cc(Oc3cc(C(F)(F)F)nn3-c3cccnc3)ccn2)ccn1 [Compound 37]
33 | 18 nM | 15 µM | CC(C)(O)c1cc(Nc2cc(Oc3cc(C(F)(F)F)nn3-c3ccccc3F)ccn2)ccn1 [Compound 38]
34 | 126 nM |  | COc1cc(Oc2ccnc(Nc3ccnc(C(C)(C)O)c3)c2)n(C2CCOCC2)n1 [Compound 39]
35 | 71 nM |  | CC(C)(O)c1cc(Nc2cc(Oc3cc(C(F)(F)F)nn3-c3ccccc3Cl)ccn2)ccn1 [Compound 40]
36 | 263 nM |  | CC(C)(O)c1cc(Nc2cc(Oc3cc(C(F)(F)F)nn3-c3cncnc3)ccn2)ccn1 [Compound 42]
37 | 159 nM |  | CC(C)(O)c1cc(Nc2cc(Oc3cc(C(F)(F)F)nn3-c3ccc(Cl)cc3)ccn2)ccn1 [Compound 43]
38 | 141 nM |  | CC(C)(O)c1cc(Nc2cc(Oc3cc(C(F)(F)F)nn3-c3ccc(C#N)cc3)ccn2)ccn1 [Compound 44]
39 | 13 nM | 21 µM | CC(C)(O)c1cc(Nc2cc(Oc3cc(C(F)(F)F)nn3-c3c(F)cccc3F)ccn2)ccn1 [Compound 45]
40 | 66 nM |  | CC1(C)OC(=N)c2ccc(Nc3cc(Oc4cc(C5CC5)nn4C4CCOCC4)ccn3)cc21 [Compound 46]
41 | 103 nM |  | CC1(C)OC(=O)c2ccc(Nc3cc(Oc4cc(C5CC5)nn4C4CCOCC4)ccn3)cc21 [Compound 47]
42 | 132 nM |  | CC(C)(O)c1cc(Nc2cc(Oc3cc(C(F)(F)F)nn3-c3ccncc3)ccn2)ccn1 [Compound 48]
43 | 32 nM |  | CC(C)(O)c1cc(Nc2cc(Oc3cc(C(F)(F)F)nn3[C@@H]3C[C@H]4CC[C@@H](C3)O4)ccn2)ccn1 [Compound 49]
44 | 113 nM |  | CC(C)(O)c1cc(Nc2cc(Oc3cc(C(F)(F)F)nn3[C@H]3C[C@H]4CC[C@@H](C3)O4)ccn2)ccn1 [Compound 50]

Row | IC50 (TGFβR1) | IC50 (TGFβR2) | Structure (SMILES)
45 | 55 nM |  | CC(C)(O)c1cc(Nc2cc(Oc3cc(C(F)(F)F)nn3-c3ccccc3C#N)ccn2)ccn1 [Compound 51]
46 | 21 nM | 16 µM | CC(C)(O)c1ccc(Nc2cc(Oc3cc(C(F)(F)F)nn3-c3ccccc3F)ccn2)cn1 [Compound 52]
47 | 18 nM | 56 µM | CC(C)(O)c1ccc(Nc2cc(Oc3cc(C(F)(F)F)nn3-c3c(F)cccc3F)ccn2)cn1 [Compound 53]
48 | 220 nM |  | COc1ccc(Oc2ccnc(Nc3ccnc(C(C)(C)O)c3)c2)c(C2CCOCC2)n1 [Compound 56]
49 | 50 nM |  | CC(C)(O)c1cc(Nc2cc(Oc3ccc(C(F)(F)F)nc3C3CCOCC3)ccn2)ccn1 [Compound 60]
50 | 116 nM |  | CC(C)(O)c1cc(Nc2cc(Oc3ccc(C4CC4)nc3C3CCOCC3)ccn2)ccn1 [Compound 61]
51 | 29 nM |  | Cc1ccc(Oc2ccnc(Nc3ccc(C(C)(C)O)nc3)c2)c(C)n1 [Compound 62]
52 | 82 nM |  | Cc1ccc(Oc2ccnc(Nc3ccnc(C(C)(C)O)c3)c2)c(C(F)(F)F)n1 [Compound 63]
53 | 32 nM |  | COc1ccc(Oc2ccnc(Nc3ccnc(C(C)(C)O)c3)c2)c(C)n1 [Compound 64]
54 | 14 nM |  | Cc1nc(C(F)(F)F)ccc1Oc1ccnc(Nc2ccnc(C(C)(C)O)c2)c1 [Compound 65]
55 | 4 nM |  | Cc1ccc(Oc2ccnc(Nc3ccnc(C(C)(C)O)c3)c2)c(CC(C)C)n1 [Compound 66]
56 | 80 nM |  | CC(C)(O)c1cc(Nc2cc(Sc3cn(C4CC4)nc3C3CCOCC3)ccn2)ccn1 [Compound 70]
57 | 25 nM |  | CC(C)(O)c1cc(Nc2cc(Oc3c(C4CCOCC4)nn4c3CCC4)ccn2)ccn1 [Compound 71]
58 | 111 nM |  | CC(C)(O)c1cc(Nc2cc(Oc3sc(C4CC4)nc3C3CCOCC3)ccn2)ccn1 [Compound 72]
59 | 14 nM |  | NS(=O)(=O)c1ccc(Nc2cc(Oc3cn(C4CC4)nc3C3CCOCC3)ccn2)cc1 [Compound 73]
60 | 17 nM |  | C[C@@H]1CC(c2nn(C3CC3)cc2Oc2ccnc(Nc3ccnc(C(C)(C)O)c3)c2)C[C@H](C)O1 (some centres unmarked) [Compound 74]
61 | 6690 nM |  | CC(C)(C)c1nc(C2CC2)sc1Oc1ccnc(Nc2ccnc(C(C)(C)O)c2)c1 [Compound 75]
62 | 90 nM |  | CC(C)c1nc(C2CCOCC2)c(Oc2ccnc(Nc3ccnc(C(C)(C)O)c3)c2)s1 [Compound 76]
63 |  | 39 µM | CC(C)(O)c1cc(Nc2cc(Oc3cn(C4CC4)nc3C3CCC(F)(F)CC3)ccn2)ccn1 [Compound 77]
64 | 57 nM |  | CC(C)(O)c1cc(Nc2cc(Oc3cn(C4CC4)nc3C(=O)Nc3ccccc3F)ccn2)ccn1 [Compound 80]
